Data: patent US8574563B2 (Bristol-Myers Squibb Company, priority 2006, dated 2013)

These molecules were tested on HCV 1b-377-neo replicon cells (assay: HCV replicon assay, HCV 1b-377-neo replicon cells (1b FRET)). Conditions: HCV 1b-377-neo replicon cells; HCV 1b genotype.
Type: cell-based, Hepatitis C virus genotype 1b
Procedure, shortened: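 Compounds tested in HCV genotype 1b-377-neo replicon cells with a FRET read-out. Cells resistant to a reference NS5A inhibitor through a Y2065H NS5A mutation were run alongside wild-type cells.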

Question: For `COC(=O)N[C@@H](C(=O)N1CCC[C@H]1c1ncc(-c2ccc(-c3ccc(-c4cnc([C@@H]5CCCN5C(=O)Cc5ccccc5OC)[nH]4)cc3)cc2)[nH]1)c1ccccc1` [Example 84-65, methyl ((1R)-2-((2S)-2-(5-(4′-(2-((2S)-1-((2-methoxyphenyl)acetyl)-2-pyrrolidinyl)-1H-imidazol-5-yl)-4-biphenylyl)-1H-imidazol-2-yl)-1-pyrrolidinyl)-2-oxo-1-phenylethyl)carbamate], which “EC50 range against HCV 1b (Table 2, Range)” value is on record?
Answer: C-D

Same assay, conditions: HCV 1b-377-neo replicon cells; HCV 1b genotype; read-out: EC50 range against HCV 1b (Table 2, Range)

Question: With `O=C(N[C@@H](C(=O)N1CCC[C@H]1c1ncc(-c2ccc(-c3ccc(-c4cnc([C@@H]5CCCN5C(=O)[C@H](NC(=O)[C@H]5CCCO5)c5ccccc5)[nH]4)cc3)cc2)[nH]1)c1ccccc1)[C@H]1CCCO1` [Example 25-1, (2R,2′R)-N,N′-(4,4′-biphenyldiylbis(1H-imidazole-5,2-diyl(2S)-2,1-pyrrolidinediyl((1R)-2-oxo-1-phenyl-2,1-ethanediyl)))ditetrahydro-2-furancarboxamide] as the molecule, how does the EC50 read?
Answer: 0.001 to 0.999 nM

Same assay, conditions: Hepatitis C virus, HCV 1b-377-neo replicon cells; HCV 1b genotype; read-out: EC50 range against HCV 1b (Table 2, Range)

Question: With `COC(=O)NC(C)(C)C(=O)N1[C@@H](C)CC[C@H]1c1nc(-c2ccc(-c3ccc(-c4c[nH]c([C@@H]5CC[C@H](C)N5C(=O)C(C)(C)NC(=O)OC)n4)cc3)cc2)c[nH]1` [Example M156, methyl (2-((2S,5S)-2-(4-(4′-(2-((2S,5S)-1-(2-((methoxycarbonyl)amino)-2-methylpropanoyl)-5-methyl-2-pyrrolidinyl)-1H-imidazol-4-yl)-4-biphenylyl)-1H-imidazol-2-yl)-5-methyl-1-pyrrolidinyl)-1,1-dimethyl-2-oxoethyl)carbamate] as the molecule, how does the EC50 read?
Answer: 1 to 99 nM

Question: Which EC50 does the source give for `CC(=O)N[C@@H](C(=O)N1CCC[C@H]1c1ncc(-c2ccc(-c3ccc(-c4cnc([C@@H]5CCCN5C(=O)[C@H](NC(C)=O)C(C)C)[nH]4)cc3)cc2)[nH]1)C(C)C` [Example 27, N-((1R)-1-(((2S)-2-(5-(4′-(2-((2S)-1-((2R)-2-acetamido-3-methylbutanoyl)-2-pyrrolidinyl)-1H-imidazol-5-yl)-4-biphenylyl)-1H-imidazol-2-yl)-1-pyrrolidinyl)carbonyl)-2-methylpropyl)acetamide] here?
Answer: 1 to 99 nM

Question: How did the EC50 turn out when `CCN(CC)[C@@H](C(=O)N1CCC[C@H]1c1ncc(-c2ccc(-c3ccc(-c4cnc([C@@H]5CCCN5C(=O)[C@@H](c5ccccc5)N(CC)CC)[nH]4)c(F)c3)cc2)[nH]1)c1ccccc1` [Example D47, (1R,1′R)-2,2′-((3-fluoro-4,4′-biphenyldiyl)bis(1H-imidazole-5,2-diyl(2S)-2,1-pyrrolidinediyl))bis (N,N-diethyl-2-oxo-1-phenylethanamine)] was run?
Answer: 0.001 to 0.999 nM

Question: For `CCN(CC)[C@@H](C(=O)N1CCC[C@H]1c1ncc(-c2ccc(-c3ccc(-c4cnc([C@@H]5CCCN5C(=O)[C@H](NC5=NCCN5)C(C)C)[nH]4)cc3)cc2)[nH]1)c1ccccc1` [cj-11p, N-((1R)-1-(((2S)-2-(5-(4′-(2-((2S)-1-((2R)-2-(diethylamino)-2-phenylacetyl)-2-pyrrolidinyl)-1H-imidazol-5-yl)-4-biphenylyl)-1H-imidazol-2-yl)-1-pyrrolidinyl)carbonyl)-2-methylpropyl)-4,5-dihydro-1H-imidazol-2-amine], which EC50 is on record?
Answer: 0.001 to 0.999 nM

Question: Which EC50 does the source give for `CC(C)(C)OC(=O)N[C@H]1CC[C@@H](C(=O)N2CCC[C@H]2c2ncc(-c3ccc(-c4ccc(-c5cnc([C@@H]6CCCN6C(=O)[C@@H](c6ccccc6)N6CCCCC6)[nH]5)cc4)cc3)[nH]2)CC1` [Example 107-13, tert-butyl (cis-4-(((2S)-2-(5-(4′-(2-((2S)-1-((2R)-2-phenyl-2-(1-piperidinyl)acetyl)-2-pyrrolidinyl)-1H-imidazol-5-yl)-4-biphenylyl)-1H-imidazol-2-yl)-1-pyrrolidinyl)carbonyl)cyclohexyl) carbamate] here?
Answer: 0.001 to 0.999 nM

Question: `COC(=O)N[C@H](C(=O)N1C[C@@H](O)C[C@H]1c1ncc(-c2ccc(-c3ccc(-c4cnc([C@@H]5C[C@H](O)CN5C(=O)[C@@H](NC(=O)OC)C(C)C)[nH]4)cc3)cc2)[nH]1)C(C)C` [JG-9, methyl ((1S)-1-(((2S,4S)-4-hydroxy-2-(5-(4′-(2-((2S,4S)-4-hydroxy-1-((2S)-2-((methoxycarbonyl)amino)-3-methylbutanoyl)-2-pyrrolidinyl)-1H-imidazol-5-yl)-4-biphenylyl)-1H-imidazol-2-yl)-1-pyrrolidinyl)carbonyl)-2-methylpropyl)carbamate] was tested. Which EC50 did it give?
Answer: 0.001 to 0.999 nM

Question: Which EC50 does the source give for `O=C(c1cscn1)N1CCC[C@H]1c1ncc(-c2ccc(-c3ccc(-c4cnc([C@@H]5CCCN5C(=O)[C@@H](c5ccccc5)N5CCCCC5)[nH]4)cc3)cc2)[nH]1` [Example 107-11, 1-((1R)-2-oxo-1-phenyl-2-((2S)-2-(5-(4′-(2-((2S)-1-(1,3-thiazo1-4-ylcarbonyl)-2-pyrrolidinyl)-1H-imidazol-5-yl)-4-biphenylyl)-1H-imidazol-2-yl)-1-pyrrolidinyl)ethyl)piperidine] here?
Answer: 0.001 to 0.999 nM

Question: How did the EC50 turn out when `COC(=O)NCC(=O)N1CCC[C@H]1c1ncc(-c2ccc(-c3ccc(-c4cnc([C@@H]5CCCN5C(=O)[C@@H](NC(=O)OC)C(C)C)[nH]4)cc3)cc2)[nH]1` [Example M73, methyl (2-((2S)-2-(5-(4′-(2-((2S)-1-((2S)-2-((methoxycarbonyl)amino)-3-methylbutanoyl)-2-pyrrolidinyl)-1H-imidazol-5-yl)-4-biphenylyl)-1H-imidazol-2-yl)-1-pyrrolidinyl)-2-oxoethyl)carbamate] was run?
Answer: 100 to 999 nM

Question: `CC(=O)N[C@H](C(=O)N1CCC[C@H]1c1nc(-c2ccc(-c3ccc(-c4c[nH]c([C@@H]5CCCN5C(=O)[C@@H](NC(C)=O)C(C)C)n4)cc3)cc2)c[nH]1)C(C)C` [Example F60, N-((1S)-1-(((2S)-2-(4-(4′-(2-((2S)-1-((2S)-2-acetamido-3-methylbutanoyl)-2-pyrrolidinyl)-1H-imidazol-4-yl)-4-biphenylyl)-1H-imidazol-2-yl)-1-pyrrolidinyl)carbonyl)-2-methylpropyl)acetamide] was tested. Which EC50 did it give?
Answer: 0.001 to 0.999 nM

Question: With `COC(=O)N[C@H](C(=O)N1CCC[C@@H]1c1ncc(-c2ccc(-c3ccc(-c4cnc([C@@H]5CCCN5C(=O)[C@@H](NC(=O)OC)C(C)C)[nH]4)cc3)cc2)[nH]1)C(C)C` [Example M28-2, methyl ((1S)-1-(((2S)-2-(5-(4′-(2-((2R)-1-((2S)-2-((methoxycarbonyl)amino)-3-methylbutanoyl)-2-pyrrolidinyl)-1H-imidazol-5-yl)-4-biphenylyl)-1H-imidazol-2-yl)-1-pyrrolidinyl)carbonyl)-2-methylpropyl)carbamate] as the molecule, how does the EC50 read?
Answer: 100 to 999 nM

Question: With `COC(=O)N[C@@H](C(=O)N1CCC[C@@H]1c1ncc(-c2ccc(-c3ccc(-c4cnc([C@@H]5CC[C@H](c6ccccc6)N5C(=O)[C@H](NC(=O)OC)c5ccccc5)[nH]4)cc3)cc2)[nH]1)c1ccccc1` [Example F6, methyl ((1R)-2-((2R)-2-(5-(4′-(2-((2S,5R)-1-((2R)-2-((methoxycarbonyl)amino)-2-phenylacetyl)-5-phenyl-2-pyrrolidinyl)-1H-imidazol-5-yl)-4-biphenylyl)-1H-imidazol-2-yl)-1-pyrrolidinyl)-2-oxo-1-phenylethyl)carbamate] as the molecule, how does the EC50 read?
Answer: 0.001 to 0.999 nM

Question: With `COC(=O)N[C@H](C(=O)N1CCC[C@H]1c1ncc(-c2ccc(-c3ccc(-c4cnc([C@@H]5CCCN5C(=O)[C@H](NC(=O)OC)c5ccccc5)[nH]4)c(F)c3)cc2F)[nH]1)[C@H](C)OC` [Example D65, methyl ((1S,2R)-1-(((2S)-2-(5-(3,3′-difluoro-4′-(2-((2S)-1-((2R)-2-((methoxyearbonyl)amino)-2-phenylacetyl)-2-pyrrolidinyl)-1H-imidazol-5-yl)-4-biphenylyl)-1H-imidazol-2-yl)-1-pyrrolidinyl)carbonyl)-2-methoxypropyl) carbamate bis(trifluoroacetate)] as the molecule, how does the EC50 read?
Answer: 0.001 to 0.999 nM

Question: `COC(=O)N[C@H](C(=O)N1CCC[C@H]1c1ncc(-c2ccc(-c3ccc(-c4cnc([C@@H]5CCCN5C(=O)[C@@H](NC(=O)OC)c5ccccc5)[nH]4)cc3)cc2)[nH]1)c1ccccc1` [Example M12, dimethyl (4,4′-biphenyldiylbis(1H-imidazole-5,2-diyl(2S)-2,1-pyrrolidinediyl((1S)-2-oxo-1-phenyl-2,1-ethanediyl)))biscarbamate] was tested. Which EC50 did it give?
Answer: 1 to 99 nM

Question: For `CCCN(CCC)[C@H](C)C(=O)N1CCC[C@H]1c1ncc(-c2ccc(-c3ccc(-c4cnc([C@@H]5CCCN5C(=O)[C@@H](C)N(CCC)CCC)[nH]4)cc3)cc2)[nH]1` [Example M13, N,N′-(4,4′-biphenyldiylbis(1H-imidazole-5,2-diyl(2S)-2,1-pyrrolidinediyl((2R)-1-oxo-1,2-propanediyl)))bis(N-propyl-1-propanamine)], which EC50 is on record?
Answer: 100 to 999 nM

Question: `COC(=O)N[C@H](C(=O)N1CCC[C@H]1c1ncc(-c2ccc(-c3ccc(-c4cnc([C@@H]5CCCN5C(=O)[C@@H](NC(=O)OC)C(C)C)[nH]4)c(F)c3)cc2F)[nH]1)C(C)C` [Example D58, methyl ((1S)-1-(((2S)-2-(5-(3,3′-difluoro-4′-(2-((2S)-1-((2S)-2-((methoxycarbonyl)amino)-3-methylbutanoyl)-2-pyrrolidinyl)-1H-imidazol-5-yl)-4-biphenylyl)-1H-imidazol-2-yl)-1-pyrrolidinyl)carbonyl)-2-methylpropyl) carbamate] was tested. Which EC50 did it give?
Answer: 0.001 to 0.999 nM

Question: `COC(=O)N[C@@H](C(=O)N1CCC[C@H]1c1nc(-c2cnc(-c3ccc(-c4cnc([C@@H]5CCCN5C(=O)[C@H](NC(=O)OC)c5ccccc5)[nH]4)c(F)c3)nc2)c[nH]1)c1ccccc1` [Example D69, methyl ((1R)-2-((2S)-2-(5-(2-(3-fluoro-4-(2-((2S)-1-((2R)-2-((methoxycarbonyl)amino)-2-phenylacetyl)-2-pyrrolidinyl)-1H-imidazol-5-yl)phenyl)-5-pyrimidinyl)-1H-imidazol-2-yl)-1-pyrrolidinyl)-2-oxo-1-phenylethyl)carbamate] was tested. Which EC50 did it give?
Answer: 0.001 to 0.999 nM

Question: How did the EC50 turn out when `COC(=O)N[C@H](C(=O)N1CCCC1c1ncc(-c2ccc(-c3ccc(-c4cnc([C@]5(C)CCCN5C(=O)[C@@H](NC(=O)OC)[C@@H](C)OC)[nH]4)cc3)cc2)[nH]1)[C@@H](C)OC` (stereo partly shown) was run?
Answer: 0.001 to 0.999 nM
